According to patent US20240009175A9, “TETRAZOLE DERIVATIVES” (Merck Patent GmbH, priority 2020, published 2024):
pIC50: −log10 of the molar value.

How the values were obtained:
[1] = target: ACSS2 (Homo sapiens (Human), UniProt Q9NR19); experiment: Cellular assay of 14C acetate incorporation into fatty acids (IC50 ACSS2 cellular lipids); type: cell-based; settings: HCT-15 cells
Procedure: Cellular Assay of ^14C Acetate Incorporation into Fatty Acids (IC50 ACSS2 Cellular Lipids)
This protocol describes a cellular assay capable to quantify endogenous fatty acid synthesis activity in the human HCT-15 cancer cell line following the incorporation of extracellularly administered radiolabeled ^14C acetate with a scintillation proximity based read out on extracted fatty acids.
HCT-15 cells were grown in RPMI 1640 (Gibco) supplemented with 2 mM glutamine, 1 mM sodium pyruvate 10 mM HEPES and 10% FCS (heat-inactivated) passaged every 2-3 days to remain a subconfluent, vital culture. A working cell bank was prepared with each aliquot containing 1×10^7 viable cells. After thawing, these cells are dilute immediately 1:20 in pre-warmed (37° C.) culture medium. Cells are collected by centrifugation at 200×g for 5 min, and the supernatant is replaced by 30 mL of fresh culture medium per aliquot to obtain a cell suspension containing 350000 cells/ml. From this cell suspension 100 μL are dispersed into each well of a collagen coated 96 well plate, (black, clear bottom, PS, F-bottom, Greiner) and culture for 24 h (37° C., 5% CO2). After incubation the culture medium is removed and the wells are washed once with 100 μL PBS++(supplemented with Mg^2+/Ca^2+, Gibco) and 50 μL assay medium (RPMI 1640+10 mM HEPES) are added to each well. Compounds serial dilutions are prepared from 10 mM stock solutions in DMSO using a fixed dilution factor (usually 1:3). After preparation of the dilution series in DMSO, the individual dilutions are further diluted in the assay medium. This working dilution is prepared such, that the concentration is 7× of the final concentration in the assay. The maximal DMSO concentration in the final assay is 0.1%.
To each well 10 μL compound working dilution or DMSO blank are added and the cells are cultured for 2 h (37° C., 5% CO2). Then 10 μL AlamarBlue reagent (Invitrogen) containing 14 μCi/mL 14C-acetate (Perkin Elmer) are added to each well (70 μl total volume) and cells are again cultured for 2 h. Cell viability is verified by measuring the AlamarBlue fluorescence (Tecan Safire, ex: 544 nm/em: 590 nm). After incubation the culture medium is removed and the wells are carefully washed once with cold 100 μL PBS++. For cell lysis and fatty acid recovery 50 μl 0.1 M NaOH and 0.1% Triton-X100 are added per well. The plate is sealed with PlateLoc (clear peelable heat seal, Agilent) and incubate at 70° C. for 16-24 h. After cooling to room temperature, the plates are centrifuged for 1 min at 1000 rpm and the plate seals are removed. For acidification 150 μL 0.1 M HCl are added to each well, mixed and 150 μL of the mixture are transferred into a 96 well FlashPlate (Perkin Elmer). The plates are sealed with TopSeal-A (Perkin Elmer). To allow for the fatty acid binding to the well surfaces the plates are incubate for 4 h at 70° C. After cooling to room temperature, the plates are centrifuged for 1 min at 1000 rpm and stored for 0.5-2h at room temperature in the dark. Radioactivity from ^14C incorporation into fatty acids in the wells is measured as CPM count in a MicroBeta scintillation counter (Perkin Elmer).

[2] = test system: CYP3A4; experiment: CYP-induction assay in HepaRG cells, QuantiGene Plex 2.0 (CYP3A4 induction); type: in vitro ADME, human; settings: 48 hrs; for CYP3A4 (in parentheses: lowest concentration causing at least 2-fold induction): value in parentheses; for CYP3A4 (significant induction above 20% threshold): value outside parentheses
Text: CYP-Induction Assay in HepaRG Cells with the QuantiGene Plex 2.0 Reagent System (Branched DNA-Assay) from Affymetrix (Thermo Scientific) (CYP3A4 Induction)
The QuantiGene Plex 2.0 assay combines branched DNA (bDNA) signal amplification and multi-analyte profiling beads (xMAP®) technologies to enable the detection and quantitation of multiple RNA targets simultaneously. The xMAP system combines a flow cytometer, fluorescent-dyed microspheres (beads), lasers and digital signal processing to allow multiplexing of up to 100 unique assays within a single sample.
Human HepaRG cells (Thermo Scientific) were thawed and seeded with a density of 0.72E6 cells/ml in a collagen precoated 96-well plate. After an adaption phase of 3 days in first Williams E medium (Gibco+thawing supplement, Thermo Scientific) the medium was changed to second Williams E medium (Gibco+tox supplement, Thermo Scientific). Daily treatment with test substances at 4 concentrations, started between day 3-10 of culturing, was performed with an incubation time of 48 hrs. After 48 hrs the cells were lysed with 100 μl/well (Lysis mixture, Affymetrix diluted 1:2 with Williams E medium, Gibco and addition of 5 μl proteinase K/ml of the mixture, Affymetrix). The QuantiGene Plex 2.0 assay utilizes fluorescent capture beads to trap specific RNA molecules. In order to hybridize and span contiguous sequences of the target RNA, the probe set containing 3 types of synthetic probes (Capture Extenders, Label Extenders, and Blockers) was incubated with samples and beads at 600 rpm at 54° C. for 16-20 h. Signal amplification was mediated by DNA amplification molecules that hybridize to the tails of the label extenders (incubation of the over-night hybridized beads with pre-amplifier and amplifier reagent for 1 h at 50° C. each, washing steps in between). Each amplification unit contains multiple hybridization sites for biotinylated label probes (incubation with label probe reagent for 1 h at 50° C., washing step in between) that bind Streptavidin-conjugated R-Phycoerythrin (SAPE, last incubation step for 30 min at room temp.). After the SAPE incubation, a last washing step with SAPE buffer was performed (120 μl left in wells). The resulting fluorescence signal associated with individual capture beads was detected on a Luminex 200 flow cytometer (parameters: volume 100 μl, timeout 45 sec., DD-gate 5,000-25,000, bead events 50). Signals were reported as median fluorescence intensity (MFI) and were proportional to the number of target RNA molecules present in the sample.
For analysis of results, calculation of mean values of 3 technical replicates as well as the standard deviations (% SD up to 30% acceptable) were carried out. The mean value of the blank was subtracted from the mean value of the sample. As the genes HPRT1 and TFRC are housekeeping genes, they are used to normalize sample mean values [(Sample Mean−Blank)/Housekeeper (Mean−Blank)=normalized value (HPRT1 or TFRC)]. Calculation of the fold-change was performed by dividing normalized sample values by the normalized mean values of the DMSO controls [(Sample Mean−Blank)/Housekeeper (Mean−Blank)=fc; (DMSO Mean−Blank)/Housekeeper (Mean−Blank)].
Experimental data of the compounds shown in Table 1 in the CYP3A4 assay are shown in Table 2 below and given in μM (significant induction above 20% threshold; in parentheses: lowest concentration causing at least 2-fold induction): […]

ACSS2, sequence (Q9NR19 whole entry): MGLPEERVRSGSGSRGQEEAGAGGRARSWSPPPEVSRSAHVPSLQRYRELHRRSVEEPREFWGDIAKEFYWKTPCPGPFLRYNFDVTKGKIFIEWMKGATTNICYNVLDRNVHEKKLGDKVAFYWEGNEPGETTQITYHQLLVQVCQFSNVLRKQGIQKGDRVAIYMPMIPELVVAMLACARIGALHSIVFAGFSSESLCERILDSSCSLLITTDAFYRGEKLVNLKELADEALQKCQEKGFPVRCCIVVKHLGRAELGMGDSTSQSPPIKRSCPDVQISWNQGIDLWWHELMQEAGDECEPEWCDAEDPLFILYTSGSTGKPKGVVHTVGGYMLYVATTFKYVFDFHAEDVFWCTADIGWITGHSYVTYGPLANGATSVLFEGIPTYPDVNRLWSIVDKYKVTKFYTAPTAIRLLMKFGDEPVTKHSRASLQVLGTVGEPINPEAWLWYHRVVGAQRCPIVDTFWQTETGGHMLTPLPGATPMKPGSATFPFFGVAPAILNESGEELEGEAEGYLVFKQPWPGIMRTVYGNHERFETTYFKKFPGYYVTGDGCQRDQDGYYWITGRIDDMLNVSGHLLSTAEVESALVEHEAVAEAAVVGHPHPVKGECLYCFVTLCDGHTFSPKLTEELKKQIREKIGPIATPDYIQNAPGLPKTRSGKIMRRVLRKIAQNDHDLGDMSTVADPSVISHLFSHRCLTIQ

| Compound | pIC50 [1] | CYP3A4 (in parentheses: lowest concentration causing at least 2-fold induction) [2] [µM] | CYP3A4 (significant induction above 20% threshold) [2] [µM] |
| --- | --- | --- | --- |
| CCc1c(C(O)(c2ccccc2)c2ccccc2)nc2ccc(-c3nnn[nH]3)cn12 [Compound 4, [3-Ethyl-6-(1 H-tetrazol-5-yl)-imidazo[1,2-a]pyridin-2-yl]-diphenyl-methanol] | 7.00 to 8.00 | 50 | 2.2 |
| CCn1c(C(O)(c2ccccc2)c2ccccc2)nc2nc(OC)c(-c3nnn[nH]3)cc21 [Compound 58, [1-ethyl-5-methoxy-6-(1H-1,2,3,4-tetrazol-5-yl)-1H-imidazo[4,5-b]pyridin-2-yl]diphenylmethanol] | 9.00 to 11.00 | 50 | 3.8 |
| CCc1c(C(O)(c2ccccc2)c2ccccc2)nn2cc(Cl)c(-c3nnn[nH]3)cc12 [Compound 21, [6-Chloro-3-ethyl-5-(1H-tetrazol-5-yl)-pyrazolo[1,5-a]pyridin-2-yl]-diphenyl-methanol] | 8.00 to 9.00 | 50 | 2.6 |
| CCn1c(C(O)(c2ccccc2F)c2ccccc2F)nc2nc(C)c(-c3nnn[nH]3)cc21 [Compound 59, [1-ethyl-5-methyl-6-(1H-1,2,3,4-tetrazol-5-yl)-1H-imidazo[4,5-b]pyridin-2-yl]bis(2-fluorophenyl)methanol] | 7.00 to 8.00 | 5 | 13.4 |
| CCn1c(C(O)(c2ccccc2)c2ccccc2)nc2ccc(C(=O)NC[C@@H](C)O)cc21 [Reference Compound, 3-Ethyl-2-[hydroxy(diphenyl)methyl]-N-[(2R)-2-hydroxypropyl]benzimidazole-5-carboxamide, reference compound] | 8.00 to 9.00 | 0.15 | 4.1 |
